Test results as given in US20240025893A1, “PYRIMIDINE-AND NITROGEN-CONTAINING BICYCLIC COMPOUND” (Asahi Kasei Pharma Corporation, priority 2020, published 2024).

Legend:
[1] = system: LPS-stimulated TNFα production in THP-1 cells; test: LPS-stimulated TNFα production inhibition test using human acute monocytic leukemia cell strain THP-1; type: cell-based; settings: Homo sapiens, THP-1, 4 h, LPS 2.5 ng/mL, average values
Procedure, shortened: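 Readout was HTRF-measured TNFα in supernatants, calibrated against a standard curve, after LPS challenge (2.5 ng/mL final, 4 h) of THP-1 cells pretreated 1 h at 37 °C with compound. Unstimulated wells defined 100% suppression and vehicle wells 0%. IC50 was fitted with a 4-parameter logistic model.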

human IRAK-4 = human IRAK-4 (Homo sapiens (Human), UniProt Q9NWZ3); test: Measurement of human IRAK-4 inhibitory activity (TR-FRET, peptide substrate phosphorylation, 10 μM ATP); type: biochemical; settings: 1 nM IRAK-4, 10 μM ATP, 23° C., 30 minutes; average values
Chain of human IRAK-4 (Q9NWZ3 whole entry): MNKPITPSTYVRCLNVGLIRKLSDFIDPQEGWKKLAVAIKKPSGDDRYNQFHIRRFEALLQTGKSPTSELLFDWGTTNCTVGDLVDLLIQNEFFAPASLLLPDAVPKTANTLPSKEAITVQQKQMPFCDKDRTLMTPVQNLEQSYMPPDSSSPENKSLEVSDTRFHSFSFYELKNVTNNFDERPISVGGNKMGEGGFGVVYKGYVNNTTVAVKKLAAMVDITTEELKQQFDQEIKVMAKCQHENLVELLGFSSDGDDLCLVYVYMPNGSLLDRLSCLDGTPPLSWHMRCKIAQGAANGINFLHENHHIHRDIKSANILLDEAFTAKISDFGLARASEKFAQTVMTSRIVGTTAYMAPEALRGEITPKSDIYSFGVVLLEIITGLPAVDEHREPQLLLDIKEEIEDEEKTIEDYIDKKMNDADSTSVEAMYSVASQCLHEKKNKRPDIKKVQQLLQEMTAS
Procedure, shortened: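 With 1 nM IRAK-4, 0.5 μM biotinylated peptide and 10 μM ATP, compound incubated 30 min at 23 °C in 50 mM HEPES pH 7.2 with Mg2+/Mn2+. Stopped with EDTA plus europium-cryptate anti-phosphopeptide antibody and streptavidin-XL665, 60 min at 23 °C. Activity taken as the 665/620 nm TR-FRET ratio.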

Cc1cc(C(=O)N2CCN([C@H]3C[C@@H](C(=O)Nc4nc5ccc(-c6cnc(CO[C@H]7CCC[C@@H]7O)nc6)cc5s4)C3)[C@@H](C)C2)ccn1 [b-04-02, (1R,3s)-N-(6-(2-((((1S,2S)-2-Hydroxycyclopentyl)oxy)methyl)pyrimidin-5-yl)benzo[d]thiazol-2-yl)-3-((S)-2-methyl-4-(2-methylisonicotinoyl)piperazin-1-yl)cyclobutane-1-carboxamide]
IC50 [1]: 21 nM | IC50 (human IRAK-4): 1.4 nM

C[C@H]1CN(C(=O)C23CC(C#N)(C2)C3)CCN1[C@H]1C[C@@H](C(=O)Nc2nc3ccc(-c4cnc(CO[C@H]5CCC[C@@H]5O)nc4)cc3s2)C1 [b-04-03]
IC50 [1]: 46 nM | IC50 (human IRAK-4): 3.21 nM

C[C@H]1CN(C(=O)CC2CCOCC2)CCN1[C@H]1C[C@@H](C(=O)Nc2nc3ccc(-c4cnc(CO[C@H]5CCC[C@@H]5O)nc4)cc3s2)C1 [b-04-04]
IC50 [1]: 49 nM | IC50 (human IRAK-4): 2.69 nM

C[C@H]1CN(C(=O)C2CCCO2)CCN1[C@H]1C[C@@H](C(=O)Nc2nc3ccc(-c4cnc(CO[C@H]5CCC[C@@H]5O)nc4)cc3s2)C1 (some centres unmarked) [b-04-05]
IC50 [1]: 54 nM | IC50 (human IRAK-4): 2.85 nM

COCCOCC(=O)N1CCN([C@H]2C[C@@H](C(=O)Nc3nc4ccc(-c5cnc(CO[C@H]6CCC[C@@H]6O)nc5)cc4s3)C2)[C@@H](C)C1 [b-04-06]
IC50 [1]: 64 nM | IC50 (human IRAK-4): 2.37 nM

C[C@H]1CN(C(=O)C2CCOC2)CCN1[C@H]1C[C@@H](C(=O)Nc2nc3ccc(-c4cnc(CO[C@H]5CCC[C@@H]5O)nc4)cc3s2)C1 (some centres unmarked) [b-04-07]
IC50 [1]: 60 nM | IC50 (human IRAK-4): 2.6 nM

CCOCC(=O)N1CCN([C@H]2C[C@@H](C(=O)Nc3nc4ccc(-c5cnc(CO[C@H]6CCC[C@@H]6O)nc5)cc4s3)C2)[C@@H](C)C1 [b-04-08]
IC50 [1]: 53 nM | IC50 (human IRAK-4): 2.48 nM

C[C@H]1CN(C(=O)C2CCOCC2)CCN1[C@H]1C[C@@H](C(=O)Nc2nc3ccc(-c4cnc(CO[C@H]5CCC[C@@H]5O)nc4)cc3s2)C1 [b-04-09]
IC50 [1]: 55 nM | IC50 (human IRAK-4): 2.58 nM

C[C@H]1CN(C(=O)C23CC(C2)C3)CCN1[C@H]1C[C@@H](C(=O)Nc2nc3ccc(-c4cnc(CO[C@H]5CCC[C@@H]5O)nc4)cc3s2)C1 [b-04-10]
IC50 [1]: 30 nM | IC50 (human IRAK-4): 3.94 nM

C[C@H]1CN(C(=O)c2ccccn2)CCN1[C@H]1C[C@@H](C(=O)Nc2nc3ccc(-c4cnc(CO[C@H]5CCC[C@@H]5O)nc4)cc3s2)C1 [b-04-11]
IC50 [1]: 38 nM | IC50 (human IRAK-4): 1.89 nM

C[C@H]1CN(C(=O)c2cccnc2)CCN1[C@H]1C[C@@H](C(=O)Nc2nc3ccc(-c4cnc(CO[C@H]5CCC[C@@H]5O)nc4)cc3s2)C1 [b-04-12]
IC50 [1]: 39 nM | IC50 (human IRAK-4): 1.93 nM

C[C@H]1CN(C(=O)c2ccncc2)CCN1[C@H]1C[C@@H](C(=O)Nc2nc3ccc(-c4cnc(CO[C@H]5CCC[C@@H]5O)nc4)cc3s2)C1 [b-04-13]
IC50 [1]: 27 nM | IC50 (human IRAK-4): 1.7 nM

C[C@H]1CN(C(=O)c2ccc(C(F)(F)F)cn2)CCN1[C@H]1C[C@@H](C(=O)Nc2nc3ccc(-c4cnc(CO[C@H]5CCC[C@@H]5O)nc4)cc3s2)C1 [b-04-14]
IC50 [1]: 25 nM | IC50 (human IRAK-4): 1.5 nM

CC(C)[C@H]1CN(C(=O)c2ccccn2)CCN1C1CC(C(=O)Nc2nc3ccc(-c4cnc(CO[C@H]5CCC[C@@H]5O)nc4)cc3s2)C1 (some centres unmarked) [b-04-15]
IC50 [1]: 28 nM | IC50 (human IRAK-4): 1.61 nM

CC[C@H]1CN(C(=O)c2ccccn2)CCN1C1CC(C(=O)Nc2nc3ccc(-c4cnc(CO[C@H]5CCC[C@@H]5O)nc4)cc3s2)C1 (some centres unmarked) [b-04-16]
IC50 [1]: 23 nM | IC50 (human IRAK-4): 1.51 nM

CC(C)[C@H]1CN(C(=O)C2CCOC2)CCN1C1CC(C(=O)Nc2nc3ccc(-c4cnc(CO[C@H]5CCC[C@@H]5O)nc4)cc3s2)C1 (some centres unmarked) [b-04-17]
IC50 [1]: 22 nM | IC50 (human IRAK-4): 1.58 nM

CC[C@H]1CN(C(=O)C2CCOC2)CCN1C1CC(C(=O)Nc2nc3ccc(-c4cnc(CO[C@H]5CCC[C@@H]5O)nc4)cc3s2)C1 (some centres unmarked) [b-04-18]
IC50 [1]: 30 nM | IC50 (human IRAK-4): 1.11 nM

C[C@H]1CN(C(=O)c2cccc(C(F)(F)F)n2)CCN1[C@H]1C[C@@H](C(=O)Nc2nc3ccc(-c4cnc(CO[C@H]5CCC[C@@H]5O)nc4)cc3s2)C1 [b-04-19]
IC50 [1]: 39 nM | IC50 (human IRAK-4): 1.38 nM

COc1cccc(C(=O)N2CCN([C@H]3C[C@@H](C(=O)Nc4nc5ccc(-c6cnc(CO[C@H]7CCC[C@@H]7O)nc6)cc5s4)C3)[C@@H](C)C2)n1 [b-04-20]
IC50 [1]: 39 nM | IC50 (human IRAK-4): 1.12 nM

Cc1cccc(C(=O)N2CCN([C@H]3C[C@@H](C(=O)Nc4nc5ccc(-c6cnc(CO[C@H]7CCC[C@@H]7O)nc6)cc5s4)C3)[C@@H](C)C2)n1 [b-04-21]
IC50 [1]: 33 nM | IC50 (human IRAK-4): 1.15 nM

C[C@H]1CN(C(=O)[C@@H]2CCOC2)CCN1[C@H]1C[C@@H](C(=O)Nc2nc3ccc(-c4cnc(CO[C@H]5CCC[C@@H]5O)nc4)cc3s2)C1 [b-04-22]
IC50 [1]: 50 nM | IC50 (human IRAK-4): 1.3 nM

C[C@H]1CN(C(=O)[C@H]2CCOC2)CCN1[C@H]1C[C@@H](C(=O)Nc2nc3ccc(-c4cnc(CO[C@H]5CCC[C@@H]5O)nc4)cc3s2)C1 [b-04-23]
IC50 [1]: 54 nM | IC50 (human IRAK-4): 1.41 nM

CCCOCc1ncc(-c2ccc3nc(NC(=O)[C@H]4C[C@@H](N5CCN(C(=O)c6ccccn6)C[C@@H]5C)C4)sc3c2)cn1 [b-04-24]
IC50 [1]: 95 nM | IC50 (human IRAK-4): 0.76 nM

CCCOCc1ncc(-c2ccc3nc(NC(=O)[C@H]4C[C@@H](N5CCN(C(=O)C6CCOC6)C[C@@H]5C)C4)sc3c2)cn1 (some centres unmarked) [b-04-25]
IC50 [1]: 71 nM | IC50 (human IRAK-4): 0.88 nM

CCCOCc1ncc(-c2ccc3nc(NC(=O)[C@H]4C[C@@H](N5CCN(C(=O)c6ccc(C(F)(F)F)cn6)C[C@@H]5C)C4)sc3c2)cn1 [b-04-26]
IC50 [1]: 86 nM | IC50 (human IRAK-4): 1.22 nM

Cc1noc(C)c1C(=O)N1CCN([C@H]2C[C@@H](C(=O)Nc3nc4ccc(-c5cnc(CO[C@H]6CCC[C@@H]6O)nc5)cc4s3)C2)[C@@H](C)C1 [b-04-27]
IC50 [1]: 108 nM | IC50 (human IRAK-4): 1.6 nM

C[C@H]1CN(C(=O)c2ccnnc2)CCN1[C@H]1C[C@@H](C(=O)Nc2nc3ccc(-c4cnc(CO[C@H]5CCC[C@@H]5O)nc4)cc3s2)C1 [b-04-28]
IC50 [1]: 72 nM | IC50 (human IRAK-4): 1.58 nM

Cc1oncc1C(=O)N1CCN([C@H]2C[C@@H](C(=O)Nc3nc4ccc(-c5cnc(CO[C@H]6CCC[C@@H]6O)nc5)cc4s3)C2)[C@@H](C)C1 [b-04-29]
IC50 [1]: 55 nM | IC50 (human IRAK-4): 1.6 nM

C[C@H]1CN(C(=O)c2cccnc2C(F)(F)F)CCN1[C@H]1C[C@@H](C(=O)Nc2nc3ccc(-c4cnc(CO[C@H]5CCC[C@@H]5O)nc4)cc3s2)C1 [b-04-30]
IC50 [1]: 62 nM | IC50 (human IRAK-4): 1.49 nM

C[C@H]1CN(C(=O)c2nccs2)CCN1[C@H]1C[C@@H](C(=O)Nc2nc3ccc(-c4cnc(CO[C@H]5CCC[C@@H]5O)nc4)cc3s2)C1 [b-04-31]
IC50 [1]: 55 nM | IC50 (human IRAK-4): 1.73 nM

Cc1nc(C)c(C(=O)N2CCN([C@H]3C[C@@H](C(=O)Nc4nc5ccc(-c6cnc(CO[C@H]7CCC[C@@H]7O)nc6)cc5s4)C3)[C@@H](C)C2)s1 [b-04-32]
IC50 [1]: 50 nM | IC50 (human IRAK-4): 1.57 nM

C[C@H]1CN(C(=O)c2ccno2)CCN1[C@H]1C[C@@H](C(=O)Nc2nc3ccc(-c4cnc(CO[C@H]5CCC[C@@H]5O)nc4)cc3s2)C1 [b-04-33]
IC50 [1]: 55 nM | IC50 (human IRAK-4): 1.99 nM

C[C@H]1CN(C(=O)c2cnccn2)CCN1[C@H]1C[C@@H](C(=O)Nc2nc3ccc(-c4cnc(CO[C@H]5CCC[C@@H]5O)nc4)cc3s2)C1 [b-04-34]
IC50 [1]: 66 nM | IC50 (human IRAK-4): 1.65 nM

C[C@H]1CN(C(=O)c2ccnc(C(F)(F)F)c2)CCN1[C@H]1C[C@@H](C(=O)Nc2nc3ccc(-c4cnc(CO[C@H]5CCC[C@@H]5O)nc4)cc3s2)C1 [b-04-35]
IC50 [1]: 37 nM | IC50 (human IRAK-4): 2.08 nM
